Measured values reported in patent publication US20200297775A1, “ENHANCED DIRECT CARDIAC REPROGRAMMING” (The J. David Gladstone Institutes, A Testamentary Trust …, priority 2016, published 2020).

Key:
[1] = test system: cardiac fibroblasts; test: Activation or knockdown of TGF-β/WNT signaling during GMT reprogramming; format: cell-based, mouse; details: added during GMT reprogramming
Excerpt: It was also observed that activating TGF-β or canonical WNT signaling reversed the reprogramming efficiency gains induced by SB431542 or XAV939, respectively. […] Moreover, overexpression of constitutively active SMAD2 or SMAD3 (TGF-β signaling effectors) abolished cardiac reprogramming enhancement by SB431542 (FIG. 15). […] An ˜80% reduction of ALK4 or ALK5 (FIG. 16) enhanced direct cardiac reprogramming, similar to SB431542 (FIG. 16). […] Thus, SB431542 and XAV939 enhance cardiac reprogramming by inhibiting TGF-β and canonical WNT signaling.

[2] = test system: Thy1+ neonatal cardiac fibroblasts from α-MHC-GFP transgenic mice; test: Drug screening of GMT cardiac reprogramming, α-MHC-GFP reporter, high-content imaging; format: cell-based, mouse; details: compounds added day 1, read-out 2 weeks
Excerpt: To identify biological pathways that could be manipulated to improve cardiac reprogramming, a chemical biology approach involving an unbiased small molecule library screen was used. Cardiac reprogramming was induced with the recently described polycistronic GMT retrovirus Mef2c-P2A-Gata4-T2A-Tbx5 to ensure that each of the three transcription factors are optimally expressed, as described in detail in Wang et al. (2015) Circ. Res. 116:237-244.
Briefly, mouse cardiac fibroblasts (CF) were isolated from PO-P4 αMHC-GFP transgenic neonates using the migration method as previously described. Burridge et al. (2012) Cell Stem Cell 10:16-28; Ieda et al. (2010) Cell 142:375-386. Hearts were isolated, minced, and onto gelatin-coated plates and incubated in fibroblast explant media (20% FBS in IMOM) for one week at 37° C. The tissue was washed with 2×PBS, digested in 0.05% Trypsin for 5 minutes, and resuspended in fibroblast explant media. Tissues were filtered through a […] filter and pelleted. Pelleted cells were stained for 20 minutes with Thy-1-APC (anti-mouse/rat CD90.1 thy-1.1) (Ebioscience, San Diego, Calif., USA) and washed 2× with PBS as previously described. Ieda et al. (2010) Cell 142:375-386. Cells were sorted for APC^+ cells by fluorescence activated cell sorting (FACS) and plated onto 10 cm gelatin-coated plates and used fresh for all studies without freezing.
Direct conversion of Thy1^+ CFs to iCMs was completed as previously described in Ieda et al. (2010) Cell 142:375-386. Briefly, pMXs-Gata4, pMXs-Mef2c, pMXs-Tbx5, polycistronic pMXs-Mef2c-Gata4-Tbx5 (GMT polycistronic) or pMXs-dsRed were constructed as previously described. Ieda et al. (2010) Cell 142:375-386; Wang, L., et al. (2015) Circ Res 116, 237-244 (2015). Retroviral vectors were packaged using Fugene HD (Roche) and delivered in OptiMEM (10 μg) to 15-cm plates containing ˜80% confluent PlatE cells in fibroblast explant media, as previously described. Qian, L., et al. (2012) Nature 485, 593-59. Viral supernatant was collected 48 hours post-transfection and used to infect cardiac fibroblasts with the addition of 0.6 μg/ml polybrene (Chemicon) and added to cardiac fibroblasts at day −1. After 24 hours, the culture medium was replaced with cardiomyocyte culture medium (iCM medium (Qian, L., et al. (2013) Nature Protocols 8: 1204-1215)) at day 0, and replaced every 3-4 days. Three separate Gata4, Mef2c, and Tbx5 retroviruses were used in the initial drug screening and the in vivo experiments; however for further in vitro experiments following the initial screening the GMT polycistronic retrovirus was used.
For drug screening, Thy1^+ neonatal cardiac fibroblasts from α-MHC-GFP transgenic mice were plated in 384-well plates at a density of 2000 cells/well. Cells were reprogrammed with the GMT retrovirus as described above. At day 1 of reprogramming, the virus was replaced with iCM medium and the compounds were added to the wells using a Biomek liquid-handling robotic station to achieve a 1:1000 dilution of the drug-library concentration. Libraries of 5500 toxicologically tested compounds (e.g., LOPAC, TOCRIS, LONZA, and […]) were screened. At day 14 of reprogramming, the plates were fixed and stained for GFP and Troponin T as described under immunocytochemistry and imaged using high-throughput, high-content imaging with an INCELL system. Data were analyzed using the INCELL image-analysis package.
For immunocytochemical analysis and quantification, samples were fixed using 4% paraformaldehyde (PFA), washed twice in PBS containing 0.1% Triton X-100 (PBST), and blocked with Power Block Universal Blocking Reagent (Biogenex, # HK085-5K) for 15 minutes at room temperature as previously described. Qian et al. (2013) Nature protocols 8:1204-1215. Samples were incubated in a mixture containing primary antibodies diluted in PBST and blocking buffer (1:1) and incubated at 4° C. overnight.

[3] = test system: SMAD2/3; test: Western blot, phosphorylation of SMAD2/3; format: cell-based
Method: (§1) Next, the mechanisms by which the small molecules regulate TGF-β and WNT signaling were investigated. Proteins from cell lysates containing 20 μg of protein were separated by SDS-PAGE and electrophoretically transferred onto polyvinylidene difluoride membranes (BioRad). Membranes were then washed in PBS, treated with blocking buffer (Li-cor), and then incubated with primary antibodies at 4° C. overnight. The following primary antibodies were used: anti-GAPDH antibody loading control (Abcam # ab9484, 0.5 μg/ml), anti-Active β-Catenin antibody (Millipore #05-665, 1:1000), anti-T-Antigen (Abcam # ab16879, 1:1000), and anti-phospho-Smad2/3 (Cell Signaling #8685S, 1:1000). Membranes were washed in PBS and incubated with the appropriate secondary antibodies (Li-Cor, IRDye […]; IRDye 800CW, 1:10,000) for 1 hour at room temperature. Membranes were washed and visualized with an Odyssey Fc Dual-mode Imaging System.

[4] = test system: cardiac and fibroblast genes; test: qRT-PCR panel of cardiac and fibroblast genes during GMT reprogramming; format: cell-based, mouse; details: 2 weeks of reprogramming
Method: To identify which of the WNT or TGF-β inhibitor compounds most effectively improve reprogramming quality, qRT-PCR was performed for a panel of cardiac and fibroblast genes. Briefly, total RNA was isolated with a commercial kit (Direct-Zol RNA Mini-prep, Zymo Research). Reverse transcription was carried out using a mixture of oligo(dT) and random hexamer primers (SuperScript III First-Strand Synthesis SuperMix for qRT-PCR, ThermoFisher Scientific). Real-time PCR Analysis was conducted with the 7900HT FAST real-time PCR detection system (Applied Biosystems). For high-throughput, real-time PCR analysis, samples were analyzed with the 96.96 Dynamic Array IFC on the Biomark HD system (Fluidigm).

[5] = test system: mouse cardiac fibroblasts; test: GMT reprogramming efficiency, α-MHC-GFP+ iCMs (dose, timing, FACS); format: cell-based
[6] = test system: mouse cardiac fibroblasts; test: Appearance of beating cells, Troponin T staining and sarcomere organization in iCMs; format: cell-based; details: after GMT infection
Method: For immunocytochemical analysis and quantification, samples were fixed using 4% paraformaldehyde (PFA), washed twice in PBS containing 0.1% Triton X-100 (PBST), and blocked with Power Block Universal Blocking Reagent (Biogenex, # HK085-5K) for 15 minutes at room temperature as previously described. Qian et al. (2013) Nature protocols 8:1204-1215. Samples were incubated in a mixture containing primary antibodies diluted in PBST and blocking buffer (1:1) and incubated at 4° C. overnight. The following primary antibodies were used: troponin T, cardiac isoform Ab-1, mouse monoclonal antibody (Thermo Scientific # MS-295-PO, 1:200), monoclonal anti-α-actinin sarcomeric antibody (Sigma Aldrich # A7811, 1/200), and anti-GFP (Thermo Scientific # A11120, 1:200). Samples were washed twice with PBST for 15 minutes each at room temperature and then incubated in a mixture containing secondary antibodies diluted in PBST and blocking buffer (1:1) at room temperature for 1 hour. Samples were washed three times with PBST for 15 minutes each at room temperature and visualized. Stained cells were quantified with ImageJ Imaging Analysis Software. The standard error mean was calculated for all comparisons; p<0.05 was considered statistically significant. […]

[7] = test system: active β catenin; test: Western blot, active β catenin; format: cell-based
Method: as §1

Molecule | effect on reprogramming enhanced by SB431542 and XAV939 [1] | hit in drug screen (Z score over 5) [2] | further results
Cc1c[nH]c(-c2cnc(NCCNc3ccc(C#N)cn3)nc2-c2ccc(Cl)cc2Cl)n1 [CHIR99021] | reversed the combined effect | – | –
NC(=O)c1ccc(-c2nc(-c3ccc4c(c3)OCCO4)c(-c3ccccn3)[nH]2)cc1 [D4476] | – | top hits | –
O=C(Nc1cccc2cccnc12)c1ccc(N2C(=O)[C@@H]3[C@H](C2=O)[C@@H]2C=C[C@H]3C2)cc1 [IWR1] | – | top hits | –
c1ccc2c(-c3cnn4cc(-c5ccc(N6CCNCC6)cc5)cnc34)ccnc2c1 [LDN-193189] | – | top hits | –
NC(=O)c1ccc(-c2nc(-c3ccc4c(c3)OCO4)c(-c3ccccn3)[nH]2)cc1 [SB431542] | – | top hits | phosphorylation of SMAD2/3 (indicator of TGF-β activation) [3]: significantly reduced; downregulating fibroblast gene expression ([4]; among TGF-β inhibitors): most efficient of the TGF-β inhibitors; timing of addition for reprogramming efficiency ([5]; GMT, SB431542 2.6 μM): most effective if added at day 1; appearance of beating cells [6]: 3 weeks
Oc1nc(-c2ccc(C(F)(F)F)cc2)nc2c1CSCC2 [XAV939] | – | top hits | activating cardiac gene expression ([4]; among WNT inhibitors): most efficient of the WNT inhibitors; expression of active β catenin (indicator of WNT activation) [7]: significantly reduced; most effective dose ([5]; GMT reprogramming efficiency): 5 µM; effect of time of addition on enhancement ([5]; GMT, XAV939): same enhancement effect when added at any time during the first 8 days
O=c1c(O)c(-c2cc(O)c(O)c(O)c2)oc2cc(O)cc(O)c12 [myricetin] | – | top hits | –
CN1C(C(=O)Nc2ccccn2)=C(O)c2ccccc2S1(=O)=O [piroxicam] | – | top hits | –
TGF-β1 ligand: excess TGF-β1 ligand added during reprogramming | partially inhibited the combined effect | – | effect on reprogramming enhanced by SB431542 [1]: reversed the effect of SB431542
activin | – | – | effect on reprogramming enhanced by SB431542 [1]: did not have a significant effect
WNT3a: activates canonical WNT signaling (protein, UniProt P56704 19-352, looked up) Protein Wnt-3a: SYPIWWSLAVGPQYSSLGSQPILCASIPGLVPKQLRFCRNYVEIMPSVAEGIKIGIQECQHQFRGRRWNCTTVHDSLAIFGPVLDKATRESAFVHAIASAGVAFAVTRSCAEGTAAICGCSSRHQGSPGKGWKWGGCSEDIEFGGMVSREFADARENRPDARSAMNRHNNEAGRQAIASHMHLKCKCHGLSGSCEVKTCWWSQPDFRAIGDFLKDKYDSASEMVVEKHRESRGWVETLRPRYTYFKVPTERDLVYYEASPNFCEPNPETGSFGTRDRTCNVSSHGIDGCDLLCCGRGHNARAERRREKCRCVFHWCCYVSCQECTRVYDVHTCK | partially blocked the effects | – | –
WNT11: activates the non-canonical WNT pathway (protein, UniProt O96014 25-354, looked up) Protein Wnt-11: IKWLALSKTPSALALNQTQHCKQLEGLVSAQVQLCRSNLELMHTVVHAAREVMKACRRAFADMRWNCSSIELAPNYLLDLERGTRESAFVYALSAAAISHAIARACTSGDLPGCSCGPVPGEPPGPGNRWGGCADNLSYGLLMGAKFSDAPMKVKKTGSQANKLMRLHNSEVGRQALRASLEMKCKCHGVSGSCSIRTCWKGLQELQDVAADLKTRYLSATKVVHRPMGTRKHLVPKDLDIRPVKDSELVYLQSSPDFCMKNEKVGSHGTQDRQCNKTSNGSDSCDLMCCGRGYNPYTDRVVERCHCKYHWCCYVTCRRCERTVERYVCK | did not have a significant effect | – | –
BMP4: regulates other aspects of TGF-β signaling (protein, UniProt P12644 293-408, looked up) Bone morphogenetic protein 4: SPKHHSQRARKKNKNCRRHSLYVDFSDVGWNDWIVAPPGYQAFYCHGDCPFPLADHLNSTNHAIVQTLVNSVNSSIPKACCVPTELSAISMLYLDEYDKVVLKNYQEMVVEGCGCR | – | – | effect on reprogramming enhanced by SB431542 [1]: did not significantly affect cardiac reprogramming
